Test results reported in ChEMBL document CHEMBL5143510, “Structure modification and biological evaluation of indole-chalcone derivatives as anti-tumor agents through dual targeting tubulin and TrxR” (Eur J Med Chem, 2022).
Where a name gives a salt, the structure may show the parent alone.

Legend:
MCF7 = assay: Antiproliferative activity against human MCF7 cells assessed as reduction in cell viability incubated for 48 hrs by MTT assay; format: functional, cell-based; details: MCF7, 48 h
A2780 = assay: Antiproliferative activity against human A2780 cells assessed as reduction in cell viability incubated for 48 hrs by MTT assay; format: functional, cell-based; details: A2780, 48 h
A549 = assay: Antiproliferative activity against human A549 cells assessed as reduction in cell viability incubated for 48 hrs by MTT assay; format: functional, cell-based; details: A549, 48 h
HeLa = assay: Antiproliferative activity against human HeLa cells assessed as reduction in cell viability incubated for 48 hrs by MTT assay; format: functional, cell-based
MHCC97H [1] = assay: Antiproliferative activity against human MHCC97H cells assessed as reduction in cell viability incubated for 48 hrs by MTT assay; format: functional, cell-based
HCT-8 = assay: Antiproliferative activity against human HCT-8 cells assessed as reduction in cell viability incubated for 48 hrs by MTT assay; format: functional, cell-based; details: HCT-8, 48 h
[2] = Antiproliferative activity against vincristine resistant human HCT-8/VCR cells assessed as reduction in cell viability incubated for 48 hrs by MTT assay; format: functional, cell-based
[3] = Resistance index, ratio of IC50 for antiproliferative activity against vincristine resistant human HCT-8/VCR cells to IC50 for antiproliferative activity against human HCT-8 cells; format: functional
MHCC97H [4] = assay: Antitumor activity against human MHCC97H cells xenografted in BALB/c mouse assessed as tumor growth inhibition at 30 mg/kg, ip administered every other day for 30 days; format: functional; details: 720 h, time 30 day, read-out: TGI
MHCC97H [5] = assay: Antitumor activity against human MHCC97H cells xenografted in BALB/c mouse assessed as tumor weight at 30 mg/kg, ip administered every other day for 30 days; format: functional; details: time 30 day
MHCC97H [6] = assay: Antitumor activity against human MHCC97H cells xenografted in BALB/c mouse assessed as tumor volume at 30 mg/kg, ip administered every other day for 30 days; format: functional; details: time 30 day
NCI/ADR-RES = assay: Antiproliferative activity against adriamycin resistant human MCF7/ADR cells assessed as reduction in cell viability incubated for 48 hrs by MTT assay; format: functional, cell-based
[7] = Antiproliferative activity against paclitaxel resistant human A2780/PTX cells assessed as reduction in cell viability incubated for 48 hrs by MTT assay; format: functional, cell-based
[8] = Resistance index, ratio of IC50 for antiproliferative activity against paclitaxel resistant human A2780/PTX cells to IC50 for antiproliferative activity against human A2780 cells; format: functional
[9] = Inhibition of TrxR (unknown origin) using DTNB as substrate incubated for 5 mins in presence of NADPH followed by substrate addition by microplate reader analysis; set-up: species or system Homo sapiens
[10] = Inhibition of TrxR in human MHCC97H cells using DTNB as substrate preincubated for 24 hrs in presence of NADPH followed by substrate addition by microplate reader analysis; format: cell-based

Row | IC50 (MCF7) [nM] | IC50 (A2780) [nM] | IC50 (A549) [nM] | IC50 (HeLa) [nM] | IC50 (HCT-8) [nM] | SMILES | IC50 (MHCC97H [1]) [nM] | further results
1 | 662 | 742 | 331 | 850 | 982 | COc1ccc2c(/C=C/C(=O)c3cc(OC)c(OC)c([N+](=O)[O-])c3)c[nH]c2c1 | 289 | –
2 | 505 | 156 | 106 | 356 | 455 | COc1ccc2c(/C=C/C(=O)c3cc(N)c(OC)c(OC)c3)cn(C)c2c1 | 198 | –
3 | 595 | 351 | 342 | 529 | 577 | COc1cc(C(=O)/C=C/c2c[nH]c3ccccc23)cc(N)c1OC | 263 | –
4 | 83 | 65 | 67 | 104 | 78 | COc1ccc2c(/C=C/C(=O)c3cc(OC)c(OC)c([Se]C)c3)c[nH]c2c1 | 58 | –
5 | 101 | 139 | 115 | 131 | 138 | COc1ccc2c(/C=C/C(=O)c3cc(OC)c(OC)c(SC)c3)c[nH]c2c1 | 112 | –
6 | – | – | – | – | 217 | CC[C@]1(O)C[C@H]2CN(CCc3c([nH]c4ccccc34)[C@@](C(=O)OC)(c3cc4c(cc3OC)N(C=O)[C@H]3[C@@](O)(C(=O)OC)[C@H](OC(C)=O)[C@]5(CC)C=CCN6CC[C@]43[C@@H]65)C2)C1 [VINCRISTINE] | – | IC50 [2]: 10200 nM; Ratio IC50 [3]: 47
7 | 1770 | 1890 | 1060 | 1960 | 1660 | COc1cc(C(=O)/C=C/c2cn(C)c3ccccc23)cc([N+](=O)[O-])c1OC | 850 | –
8 | 59 | 25 | 12 | 34 | 32 | COc1cc(C(=O)/C(C)=C/c2c[nH]c3ccccc23)cc([Se]C)c1OC | 18 | –
9 | 166 | 145 | 156 | 167 | 157 | COc1ccc2c(/C=C/C(=O)c3cc(OC)c(OC)c(SC)c3)cn(C)c2c1 | 122 | –
10 | 1520 | 952 | 1020 | 951 | 753 | COc1ccc2c(/C=C/C(=O)c3cc(OC)c(OC)c([N+](=O)[O-])c3)cn(C)c2c1 | 562 | –
11 | – | – | – | – | – | COc1ccc(/C=C\c2cc(OC)c(OC)c(OC)c2)cc1OP(=O)(O)O [FOSBRETABULIN] | – | inhibition in vivo at 30 mg/kg (MHCC97H [4]): 39.2%; Activity (MHCC97H [5]): 0.888 g; Activity (MHCC97H [6]): 1031.1 mm3
12 | – | – | – | – | – | O=c1c2ccccc2[se]n1CCn1[se]c2ccccc2c1=O | – | inhibition in vivo at 30 mg/kg (MHCC97H [4]): 51.7%; Activity (MHCC97H [5]): 1.119 g; Activity (MHCC97H [6]): 832.6 mm3
13 | – | – | – | – | – | COc1cccc2c1C(=O)c1c(O)c3c(c(O)c1C2=O)C[C@@](O)(C(=O)CO)C[C@@H]3O[C@H]1C[C@H](N)[C@H](O)[C@H](C)O1 [DOXORUBICIN HYDROCHLORIDE] | – | IC50 (NCI/ADR-RES): 232000 nM
14 | 44 | 26 | 15 | 32 | 25 | COc1ccc2c(/C=C(\C)C(=O)c3cc(OC)c(OC)c([Se]C)c3)cn(C)c2c1 | 15 | –
15 | 631 | 441 | 498 | 668 | 605 | COc1cc(C(=O)/C=C/c2cn(C)c3ccccc23)cc(N)c1OC | 289 | –
16 | 102 | 193 | 188 | 105 | 210 | COc1cc(C(=O)/C=C/c2cn(C)c3ccccc23)cc(SC)c1OC | 150 | –
17 | 249 | 204 | 193 | 155 | 368 | COc1ccc2c(/C=C/C(=O)c3cc(N)c(OC)c(OC)c3)c[nH]c2c1 | 186 | –
18 | 77 | 35 | 18 | 63 | 48 | COc1cc(C(=O)/C(C)=C/c2cn(C)c3ccccc23)cc([Se]C)c1OC | 26 | –
19 | 186 | 169 | 152 | 159 | 167 | COc1cc(C(=O)/C=C/c2c[nH]c3ccccc23)cc(SC)c1OC | 131 | –
20 | – | 21 | – | – | – | CC(=O)O[C@H]1C(=O)[C@@]2(C)[C@H]([C@H](OC(=O)c3ccccc3)[C@]3(O)C[C@H](OC(=O)[C@H](O)[C@@H](NC(=O)c4ccccc4)c4ccccc4)C(C)=C1C3(C)C)[C@]1(OC(C)=O)CO[C@@H]1C[C@@H]2O [PACLITAXEL] | – | IC50 [7]: 344 nM; Ratio IC50 [8]: 16.4
21 | 1290 | 1280 | 1510 | 1350 | 1390 | COc1cc(C(=O)/C=C/c2c[nH]c3ccccc23)cc([N+](=O)[O-])c1OC | 830 | –
22 | – | – | – | – | – | COc1cc(/C=C/C(=O)CC(=O)/C=C/c2ccc(O)c(OC)c2)ccc1O [CURCUMIN] | – | IC50 [9]: 29000 nM; IC50 [10]: 28800 nM

Row | SMILES | IC50 (MCF7) [nM] | IC50 (A2780) [nM] | IC50 (A549) [nM] | IC50 (HeLa) [nM] | IC50 (HCT-8) [nM] | IC50 (MHCC97H [1]) [nM] | further results
23 | COc1ccc(/C=C\c2cc(OC)c(OC)c(OC)c2)cc1O [COMBRETASTATIN A4] | 29 | – | – | 16 | 23 | 8 | –
